{
  "source": "patent US20220362153A1",
  "about": "“COMPOSITIONS AND METHODS FOR PULMONARY SURFACTANT-BIOMIMETIC NANOPARTICLES” (priority 2019, published 2022)",
  "tested_on": "SH13 H7N9 virus",
  "parameters": "species or system mice",
  "settings": "mouse, in vivo",
  "data": [
    {"substance": "poly IC", "values": [
      {"measurement": "protection from lethal SH13 H7N9 challenge", "result": "did not provide any benefit over the vaccine alone"}
    ]}
  ]
}
